# Measurements from patent publication US20220111019A1, “BRCA1 MODULATING COMPOUNDS, FORMULATIONS THEREOF, AND USES THEREOF” (VIRGINIA TECH INTELLECTUAL PROPERTIES, INC., priority 2018, published 2022).
# “Also recorded” adds a separate entry of the source.
# How the values were obtained:
# p53R306 = test: Western blot quantification of p53 in lysates of treated HCC1937 cells; type: cell-based, human; conditions: HCC1937 cell lysates; for decrease in p53 level: single treatment (ML364 or H2O2)
# Procedure: (§1) Cell lysate preparations. For whole cell lysate preparations, HCC1937 cells were treated by adding 1 mM H2O2 to the culture media for 10-20 minutes, while incubating cells at 37° C. and 5% CO2. Following each incubation time, cells were washed with 1× PBS (Sigma) to eliminate residual H2O2. The cells were then treated with 7 μM-9 μM ML364 (Axon Medchem) for up to 48 hours at 37° C. and 5% CO2. Control cells were cultured in media lacking H2O2 and/or ML364 during the same time period. Cells were collected and washed with ice-cold 1× PBS once followed by centrifugation at 500×g for 5 minutes. Cell pellets were lysed by resuspending the pellets in buffer solution containing 20 mM HEPES (pH 6.8), 150 mM NaCl, 2.5 mM CaCl2, 2.5 mM MgCl2, 1 mM EDTA, 2% Nonidet-P40 (NP40), 1% Nadeoxycholate, 2× protease inhibitors (Sigma), 1× phosphatase inhibitors (Sigma), and 8% glycerol. The lysis mixture was incubated on ice for 30 minutes and centrifuged at 21,000×g for 15 minutes at 4° C. The supernatants were collected and protein concentrations were quantified using the standard Pierce Bradford assay.
# (§2) SDS-Page, immunoblotting, and densitometry measurements. Protein fractions were also analyzed by SDS-PAGE denaturing gels followed by staining with SimplyBlue SafeStain solution (Invitrogen) or Western blotting as previously described (10). For Western blot analysis, the following primary antibodies were used: BRCA1 (C-20; Santa Cruz Biotechnology, sc-642), ubiquitin-pAb (Enzo Life Sciences, ADI-SPA-200), p53 (DO-1; Santa Cruz Biotechnology, sc-126), K63-linkage specific polyubiquitin (D7A11; Cell Signaling, #5621) and p-actin (Sigma-Aldrich, A5441). Western blot quantification was performed using Image Labrm Software (Bio-Rad). The intensity of each band was selected using the volume tool. Local subtraction and linear regression methods were implemented to eliminate the local background values and to quantify the band intensities.
# mutated BRCA1 = test: Western blot quantification of BRCA1 in lysates of treated HCC1937 cells; type: cell-based, human; conditions: HCC1937 cell lysates; for decrease in BRCA1 level: single treatment (ML364 or H2O2)
# Procedure: as §1, §2
# BARD1 = conditions: HCC70 cells, 1 mM H2O2, replicate experiments
# Procedure: (§3) Authentication of cells, cell culture, and protein enrichment. Breast cancer cells (HCC70 and HCC1937 lines) used in this study were purchased from the American Type Culture Collection (ATCC) and independently characterized by ATCC as being triple negative primary ductal carcinoma cells. For all experiments, cells were promptly used within 6 months of resuscitation. Cells were cultured in RPMI-1640 (Mediatech) supplemented with 10% fetal bovine serum (ATCC) and 0.5× penicillin-streptomycin (Thermo Fisher) at 37° C. and 5% CO2 environment. BRCA1-BARD1 complexes were enriched as previously described (25). Briefly, about 1,000,000 cells were collected using Trypsin-EDTA (Thermo Fisher) followed by centrifugation (500×g, 5 minutes). For experiments involving hydrogen peroxide (H2O2), cells were collected with cell scrapers after treated with 1 mM of H2O2 (Sigma Aldrich) for 40 minutes at 37° C. and 5% CO2. Sub-cellular fractions (cytoplasmic and nuclear) were separated using the NE-PER kit (Thermo Scientific). The soluble nuclear material was incubated with Ni-NTA agarose beads (Qiagen) and incubated with rotation for 1 hour at 4° C. The beads were washed with five bed volumes of 20 mM HEPES buffer (pH 7.2, 140 mM NaCl, 2 mM CaCl2, 2 mM MgCl2 and 5 mM imidazole).
# BRCA1 = conditions: HCC70 cells, 1 mM H2O2, replicate experiments
# Procedure: as §3
# HCC1937 cells [1] = test: MTS cell viability assay after H2O2 and/or ML364 treatment; type: cell-based, human; conditions: 1 mM H2O2 10 min, vs untreated cells
# Procedure: (§4) Cell viability and proliferation assays. To determine cellular viability, we used the CellTiter 96® AQueous One Solution Cell Proliferation Assay (MTS; Promega). HCC1937 were seeded (about 4000 cells per well) in a 96-well plate at 37° C. and 5% CO2 overnight. Following a 10-minute incubation with culture media containing 1 mM H2O2, cells were washed with PBS solution and further treated with 7 μM ML364 for 24 hours at 37° C. with 5% CO2. Control cells were cultured in media lacking H2O2 and/or ML364 during the same time period. Culture media and containing MTS reagent was added to each well. The titer plate was incubated 37° C. and 5% CO2 for 1-4 hours. Absorbance values were measured at 490 nm using iMark microplate reader (Bio-Rad). MTS was also used to determine cell growth following ML364 treatment. HCC1937 cells were plated (about 1500 cells per well) in a 96-well plate at 37° C. and 5% CO2 overnight. Cells were treated with DMSO and ML364 at the different doses (2.5 μM-80 μM). After 3 days of incubation, cell viability was measured using the MTS reagent. Cellular survival was calculated by dividing the absorbance of the treated groups by those of the untreated groups (DMSO). Values for the half-maximal inhibitory concentration (IC50) were obtained using Prism software package (GraphPad).
# Targeting cancer cells that express mutated BRCA1. As described elsewhere herein, mutated BRCA1 can be fine-tuned in vitro. The application of this aspect of the techology to treat cancer cells was evaluated. Enhancing the activity of tumor suppressors in healthy cells can facilitate their growth and resilience. Conversely, treating cancer cells with drugs that limit DNA repair may lessen their survival. Poly(ADP-Ribose) Polymerase (PARP) inhibitors have been used to treat BRCA1-related cancers (25-28). A limited-repair paradigm approach was developed and used treated breast cancer cells (HCC1937 line) with the DUB inhibitor, ML364 (Axon Ligands™). […] The viability of treated cells and untreated cells was quantified using MTS assay measurements.
# [2] = system: 8-Oxo-Guanine (8-Oxo-G) accumulation in HCC1937 cells; test: Immunofluorescence detection of 8-Oxo-Guanine DNA lesions; type: cell-based, human; conditions: for 8-Oxo-G accumulation in and around the nucleus: single treatment (ML364 in IC50 range or 1 mM H2O2 10 minutes)
# Procedure: Fluorescence microscopy. The production of 8-Oxo-Guanine (8-Oxo-G) DNA lesions was detected by fluorescence imaging as previously described (10, 11). Briefly, HCC1937 cells (about 40,000 cells/chamber) were plated in an eight-chamber slide and incubated at 37° C. and 5% CO2 overnight. Cells were treated with complete culture media containing 1 mM H2O2 for 10-20 minutes to induce oxidative damage in the nucleus. Cells were then wash with 1× PBS and treated with ML364 (7 μM-9 μM) for up to 48 hours at 37° C. and 5% CO2. Control cells were cultured in media without H2O2 and ML364 during the same time period. Cells were washed with standard PBS solution and fixed with 4% paraformaldehyde (Electron Microscopy Sciences) for 15 minutes. The fixed cells were permiabilized by PBS solution containing 0.5% Triton X-100 (Sigma) for 10 minutes. After 1-hour blocking step with PBS supplemented with 10% normal goat serum (Jackson Immuno Research) and 0.2% Triton X-100, cells were incubated with anti-8-OxoG DNA Lesion (483.15; Santa Cruz Biotechnology) at 4° C. overnight. The 8-OxoG DNA lesions were detected with goat anti-mouse IgM-TR (Santa Cruz Biotechnology) and nuclei were stained with Hoechst 33342. An inverted fluorescence microscope (Zeiss Axio Vert.A1; Carl Zeiss Microscopy) was used to image the cells.
# To determine the effect of ML364 on genomic stability, we performed immunofluorescent imaging on HCC1937 breast cancer cells to detect 8-Oxo-Guanine (8-Oxo-G) (FIG. 13C). The nuclear accumulation of 8-Oxo-G in cells indicates deficiencies in DNA damage repair (10, 11). Cells were treated with H2O2 to induce oxidative DNA damage. The ML364 drug was then administered to the cells in the IC50 range. The accumulation of 8-Oxo-G was detected using monoclonal antibodies against the substrate and fluorescently-labeled secondary antibodies. […] Under oxidative stress conditions, there was a minor degree of 8-Oxo-G detected in nuclear region following 10 minutes of treatment. […]
# HCC1937 cells [3] = test: MTS cell growth assay after ML364 treatment (IC50); type: cell-based, human; conditions: 3 days of incubation, doses 2.5 μM-80 μM, read-out: half maximal inhibitory concentration (IC50) range
# Procedure: as §4, with “Cells were treated with DMSO and ML364 at the different doses (2.5 μM-80 μM).” left out, “Values for the half-maximal inhibitory concentration (IC50) were obtained using Prism software package (GraphPad).” left out
# Targeting cancer cells that express mutated BRCA1. […] The application of this aspect of the techology to treat cancer cells was evaluated. […] The viability of treated cells and untreated cells was quantified using MTS assay measurements.
# p53 = test: Ubiquitin ligase assay in T98G nuclear extracts; type: biochemical, human; conditions: T98G nuclear reaction mixtures, 37° C., 1 hour, vs control samples
# Procedure: Ubiquitin ligase assay. Aliquots of DUB-treated or “restored” BRCA1-BARD1 (0.2 mg/ml) were incubated with 10 μM ML364 (USP2 inhibitor) at 37° C. for 1 hour to halt USP2 activity. Samples were then stored overnight at 4° C. The restored BRCA1-BARD1 fractions were added in varying amounts to soluble nuclear extracts prepared from T98G cells. T98G cells naturally produced low levels of BRCA1. Control samples lacked restored BRCA1-BARD1. The reaction mixtures were incubated in a water bath at 37° C. for 1 hour.
# Wild-type p53-caught in the act of repair. The extent to which restored BRCA1 could enhance the ubiquitin ligase activity of cells with inherently low levels of BRCA1 (T98G line) (FIGS. 16A-16C) was evaluated. Quantities of restored BRCA1-BARD1 were added to nuclear reaction mixtures prepared from T98G cells, and changes in ubiquitination were assessed over multiple experiments (FIG. 12A). To simplify the results, modifications to the p53 monomer was first evaluated. According to Western blots, full-length p53 migrated at about 50 kDa while ubiquitnated monomers migrated close to about 68 kDa (FIGS. 12B and 16A-16C). Proteins receiving K63-linked ubiquitin adducts are often involved in autophagy and DNA repair (22), (23), (24). […] As the T98G cells naturally produced little BRCA1, we attributed the increase in ubiquitin ligase activity to the restored BRCA1-BARD1 supplement.
Compound,decrease in p53 level (p53R306),decrease in BRCA1 level (mutated BRCA1),decrease in BARD1 level (BARD1),decrease in BRCA1 level (BRCA1),"cytotoxicity at 1000 µM (HCC1937 cells [1]; Homo sapiens, ML364 and H2O2 given separately, 7 μM ML364 24 hours, read-out: decrease in viability) [%]",8-Oxo-G accumulation in and around the nucleus [2],"decline in p53 level, combination of H2O2 and ML364 (p53R306; H2O2 then ML364)","decline in BRCA1 level, combination of H2O2 and ML364 (mutated BRCA1; H2O2 then ML364)","decline in viability, combined treatment (HCC1937 cells [1]; then 7 μM ML364 24 hours)","decrease in viability (HCC1937 cells [1]; ML364 and H2O2 given separately, 7 μM ML364 24 hours)","8-Oxo-G accumulation, combination of H2O2 and ML364 ([2]; 1 mM H2O2 then ML364 in IC50 range, up to 48 hours)",IC50 (HCC1937 cells [3]) [µM],increase in K63-type ubiquitin adducts on p53 (ubiquitination of p53) (p53)
"OO [H2O2, hydrogen peroxide]",15-20%,15-20%,10-20%,10-20%,~50,minor degree,,,,,,,
Cc1ccc(S(=O)(=O)Nc2cc(C(F)(F)F)ccc2C(=O)Nc2nc(-c3ccccc3)cs2)cc1 [ML364],about 30%,about 30%,,,,more abundant; also recorded: higher level,about 50%,about 50%,about 70%,about 50%,greatest 8-Oxo-G buildup; also recorded: greatest degree; also recorded: higher level,7 to 10,
wild-type BRCA1-BARD1: wild type BRCA1-BARD1 heterodimer used as supplement for comparison,,,,,,,,,,,,,about 24%
